Laboratory results as given in ChEMBL document CHEMBL1201862, “PubChem BioAssay data set” (2004).
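Briefly, cells in 96-well plates were exposed to five compound concentrations for 48 h, and endpoints were estimated by linear interpolation. GI50 marks 50% less growth.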 The source made the active and inactive calls. No stated cut-off is given here; in the data, active = GI50 up to about 1.1 µM and inactive = higher.

Key:
Test in all cases: DTP human tumour cell line panel, 48 h
HCT-15 = system: HCT-15
HL-60 = system: HL-60
KM12 = system: KM12
MDA-MB-231 = system: MDA-MB-231
MDA-MB-435 = system: MDA-MB-435
Malme-3M = system: Malme-3M
NCI-H226 = system: NCI-H226
NCI-H23 = system: NCI-H23
NCI/ADR-RES = system: NCI/ADR-RES
PC-3 = system: PC-3
SF-268 = system: SF-268
SF-539 = system: SF-539
SK-MEL-28 = system: SK-MEL-28
SK-MEL-2 = system: SK-MEL-2
UO-31 = system: UO-31

Row | SMILES | GI50 (HCT-15) | GI50 (HL-60) | GI50 (KM12) | GI50 (MDA-MB-231) | GI50 (MDA-MB-435) | GI50 (Malme-3M) | GI50 (NCI-H226) | GI50 (NCI-H23) | GI50 (NCI/ADR-RES) | GI50 (PC-3) | GI50 (SF-268) | GI50 (SF-539) | GI50 (SK-MEL-28) | GI50 (SK-MEL-2) | GI50 (UO-31)
1 | O=c1cccc2n1C[C@H]1CNC[C@H]2C1 | > 100 µM | > 100 µM (inactive) | > 100 µM (inactive) | > 100 µM (inactive) | > 100 µM (inactive) | > 100 µM (inactive) | > 100 µM (inactive) | > 100 µM (inactive) | > 100 µM (inactive) | > 100 µM (inactive) | > 100 µM (inactive) | > 100 µM (inactive) | > 100 µM (inactive) | > 100 µM (inactive) | > 100 µM (inactive)
2 | COC(=O)Cc1cc(O)c(C/C=C(\C)CC/C=C(\C)C(O)C(=O)C=C(C)C)cc1O (stereo not drawn) | – | 2.76 µM (inactive) | 20.7 µM (inactive) | 34.7 µM (inactive) | 20.6 µM (inactive) | 17.3 µM (inactive) | 26.3 µM (inactive) | 39.4 µM (inactive) | 22.5 µM (inactive) | 21.9 µM (inactive) | 19.7 µM (inactive) | 20.3 µM (inactive) | – | 24.6 µM (inactive) | 21.6 µM (inactive)
3 | CN(C)CCOc1ccc2[nH]c(C(=O)N3CC(CCl)c4c3cc(N)c3ccccc43)cc2c1 (stereo not drawn) | < 0.01 µM | < 0.01 µM (active) | < 0.01 µM (active) | < 0.01 µM (active) | < 0.01 µM (active) | < 0.01 µM (active) | < 0.01 µM (active) | < 0.01 µM (active) | < 0.01 µM (active) | < 0.01 µM (active) | < 0.01 µM (active) | < 0.01 µM (active) | < 0.01 µM (active) | < 0.01 µM (active) | < 0.01 µM (active)
4 | Cc1c(Cl)nc(Cl)nc1Cl | 0.287 µM | 1.94 µM (inactive) | 2.44 µM (inactive) | 1.43 µM (inactive) | 2.19 µM (inactive) | 1.05 µM (active) | 3.21 µM (inactive) | 2.18 µM (inactive) | 1.36 µM (inactive) | 2 µM (inactive) | 1.73 µM (inactive) | 2.43 µM (inactive) | 3.18 µM (inactive) | – | 0.409 µM (active)
5 | CCCCN=C(OC1C=CCCC1)SC (stereo not drawn) | > 100 µM | > 100 µM (inactive) | – | > 100 µM (inactive) | > 100 µM (inactive) | > 100 µM (inactive) | > 100 µM (inactive) | > 100 µM (inactive) | > 100 µM (inactive) | > 100 µM (inactive) | > 100 µM (inactive) | – | > 100 µM (inactive) | – | > 100 µM (inactive)
6 | Cc1cc(-n2c(/C=C/c3ccc(Cl)cc3)nc3cc(Cl)ccc3c2=O)on1 | 28.1 µM | > 50 µM (inactive) | > 50 µM (inactive) | 15.6 µM (inactive) | 14.2 µM (inactive) | 24 µM (inactive) | 12.4 µM (inactive) | 41.4 µM (inactive) | 14.4 µM (inactive) | > 50 µM (inactive) | 15.7 µM (inactive) | 25.6 µM (inactive) | > 50 µM (inactive) | – | 3.61 µM (inactive)
7 | CN(C)c1nc2sc3c(c2c(=O)o1)CCCC3 | 33.3 µM | 27 µM (inactive) | 21.6 µM (inactive) | 41.5 µM (inactive) | 31.5 µM (inactive) | 25.9 µM (inactive) | 15.3 µM (inactive) | 46.3 µM (inactive) | 43 µM (inactive) | 34.4 µM (inactive) | – | 43.3 µM (inactive) | 71.3 µM (inactive) | 25.3 µM (inactive) | 7.46 µM (inactive)
8 | C/C(CC1C2CCCC1C2)=N\NC(N)=O (stereo not drawn) | > 100 µM | > 100 µM (inactive) | > 100 µM (inactive) | > 100 µM (inactive) | > 100 µM (inactive) | > 100 µM (inactive) | > 100 µM (inactive) | > 100 µM (inactive) | > 100 µM (inactive) | > 100 µM (inactive) | > 100 µM (inactive) | > 100 µM (inactive) | > 100 µM (inactive) | > 100 µM (inactive) | > 100 µM (inactive)
9 | CC1CCC2(CC1)NC1=C(CC(C)CC1)C1=C2CC(C)CC1 (stereo not drawn) | 18.1 µM | 14.4 µM (inactive) | 18.1 µM (inactive) | 20.5 µM (inactive) | > 10 µM (inactive) | 26.9 µM (inactive) | 16.7 µM (inactive) | 20.8 µM (inactive) | > 10 µM (inactive) | 16.1 µM (inactive) | – | 22.1 µM (inactive) | 17.7 µM (inactive) | 21.8 µM (inactive) | 20.3 µM (inactive)
10 | O=C(Cc1csc2[n+]1C(=O)/C(=C/c1ccc(Cl)cc1)S2)Nc1ccccc1 | 23.8 µM | 20.2 µM (inactive) | 22.5 µM (inactive) | 14.8 µM (inactive) | 25.3 µM (inactive) | 30.1 µM (inactive) | 15.6 µM (inactive) | 24.2 µM (inactive) | 21.7 µM (inactive) | 16.4 µM (inactive) | 21.5 µM (inactive) | 27.8 µM (inactive) | 30.4 µM (inactive) | 17.9 µM (inactive) | 21.9 µM (inactive)
11 | Fc1ccccc1C1SCc2nc3cc4ccccc4cc3n21 (stereo not drawn) | 94.8 µM | 13.2 µM (inactive) | > 100 µM (inactive) | 13.2 µM (inactive) | > 100 µM (inactive) | > 100 µM (inactive) | 75.5 µM (inactive) | > 100 µM (inactive) | 49.1 µM (inactive) | 78.3 µM (inactive) | 45.3 µM (inactive) | – | 54.3 µM (inactive) | > 100 µM (inactive) | > 100 µM (inactive)
12 | CCSc1ncnc2c(C3OC(CO)C(O)C3O)nsc12 (stereo not drawn) | > 100 µM | > 100 µM (inactive) | – | > 100 µM (inactive) | > 100 µM (inactive) | > 100 µM (inactive) | > 100 µM (inactive) | – | > 100 µM (inactive) | > 100 µM (inactive) | > 100 µM (inactive) | > 100 µM (inactive) | > 100 µM (inactive) | > 100 µM (inactive) | –
13 | Cc1ccc2c(c1)/C(=N/Nc1ccccc1[N+](=O)[O-])C(=O)N2 | > 100 µM | > 100 µM (inactive) | 4.19 µM (inactive) | 1.61 µM (inactive) | > 100 µM (inactive) | 3.48 µM (inactive) | 8.41 µM (inactive) | 7.76 µM (inactive) | 3.72 µM (inactive) | 24.8 µM (inactive) | 3.4 µM (inactive) | 2.11 µM (inactive) | > 100 µM (inactive) | > 100 µM (inactive) | 2.05 µM (inactive)
14 | C=C[C@H]1CN2CCc3c([nH]c4c([C@@H]5CCCN5C)c(O)ccc34)[C@@H]2C[C@@H]1C[C@H]1c2[nH]c3ccccc3c2CCN1C | 1.02 µM | 0.409 µM (active) | 1.41 µM (inactive) | 1.63 µM (inactive) | 1.48 µM (inactive) | – | 1.67 µM (inactive) | 1.85 µM (inactive) | 1.61 µM (inactive) | 1.41 µM (inactive) | 1.48 µM (inactive) | 1.57 µM (inactive) | 1.55 µM (inactive) | 1.91 µM (inactive) | 1.08 µM (active)
15 | O=C1NC(=O)/C(=C/c2ccc(S(=O)(=O)N/N=C/c3ccccc3)cc2)N1 | > 100 µM | > 100 µM (inactive) | > 100 µM (inactive) | > 100 µM (inactive) | > 100 µM (inactive) | > 100 µM (inactive) | > 100 µM (inactive) | > 100 µM (inactive) | > 100 µM (inactive) | > 100 µM (inactive) | > 100 µM (inactive) | – | > 100 µM (inactive) | > 100 µM (inactive) | > 100 µM (inactive)
16 | CC(=O)NC(C)(C)C1CC=C(C)CC1 (stereo not drawn) | > 100 µM | > 100 µM (inactive) | > 100 µM (inactive) | > 100 µM (inactive) | > 100 µM (inactive) | > 100 µM (inactive) | > 100 µM (inactive) | > 100 µM (inactive) | > 100 µM (inactive) | > 100 µM (inactive) | > 100 µM (inactive) | > 100 µM (inactive) | > 100 µM (inactive) | – | > 100 µM (inactive)
17 | O=C(NCCNCCCNC(=O)c1cc(-c2ccccc2)nc2ccccc12)c1cccc(OCc2ccccc2)c1OCc1ccccc1 | 1.74 µM | 1.6 µM (inactive) | 1.83 µM (inactive) | 1.71 µM (inactive) | 1.68 µM (inactive) | 2.07 µM (inactive) | 1.69 µM (inactive) | 1.83 µM (inactive) | 1.87 µM (inactive) | 1.67 µM (inactive) | 1.88 µM (inactive) | 1.77 µM (inactive) | 1.81 µM (inactive) | – | 1.66 µM (inactive)
18 | Cc1oc(N)c(S(=O)(=O)c2cc3ccccc3[n+]([O-])c2N)c1C | > 100 µM | – | > 100 µM (inactive) | > 100 µM (inactive) | > 100 µM (inactive) | > 100 µM (inactive) | > 100 µM (inactive) | > 100 µM (inactive) | > 100 µM (inactive) | > 100 µM (inactive) | > 100 µM (inactive) | > 100 µM (inactive) | > 100 µM (inactive) | > 100 µM (inactive) | > 100 µM (inactive)
19 | CCC(=O)ONC(=O)Cn1ccc([N+](=O)[O-])n1 | – | > 100 µM (inactive) | > 100 µM (inactive) | > 100 µM (inactive) | > 100 µM (inactive) | > 100 µM (inactive) | > 100 µM (inactive) | > 100 µM (inactive) | > 100 µM (inactive) | > 100 µM (inactive) | > 100 µM (inactive) | > 100 µM (inactive) | > 100 µM (inactive) | – | > 100 µM (inactive)
20 | CC(=O)O[C@H]1[C@H](OC(=O)CC(C)(O)CC(=O)O)C[C@]2(C)C3=C(CCC2C1(C)C)[C@]1(C)CC[C@H]([C@H]2CC[C@H](C(C)(C)O)OC2O)[C@@]1(C)[C@@H](O)C3 (stereo partly drawn) | 17.2 µM | 17.7 µM (inactive) | 19.7 µM (inactive) | 14.9 µM (inactive) | 19.1 µM (inactive) | 23.7 µM (inactive) | 23.8 µM (inactive) | 16.6 µM (inactive) | > 100 µM (inactive) | 18.3 µM (inactive) | – | – | 16.9 µM (inactive) | 18.8 µM (inactive) | 13.1 µM (inactive)
